These results are taken from patent US20150031668A1, “CHROMAN DERIVATIVES AS TRPM8 INHIBITORS” (AMGEN INC., priority 2013, published 2015).

Each structure is given as a SMILES string.

Broadly, the IC50 is the concentration that inhibits the measured activity by half.

For this assay, the target named is T1, human TRPM8 (Homo sapiens, UniProt Q7Z2W7).
T1 construct: expressed in transfected cells; host or cells: Chinese hamster ovary (CHO) cells, T-REx tetracycline-inducible expression system (Invitrogen); co-transfected with pcDNA3.1 aequorin
The assay can be described thus: Luminescence readout assay for measuring intracellular calcium (aequorin, CHO cells expressing human TRPM8; icilin, L-menthol or cold activation). It counts as cell-based. The conditions noted are these: CHO cells expressing human TRPM8, icilin activation (1 μM), aequorin luminescence; read-out: hTRPM8 IC50. As for the experimental part: Luminescence Readout Assay for Measuring Intracellular Calcium
A stable Chinese hamster ovary cell line expressing human TRPM8 was generated using tetracycline inducible T-REx™ expression system from Invitrogen, Inc. (Carlsbad, Calif.). […] Twenty four hours before the assay, cells were seeded in 96-well plates and TRPM8 expression was induced with 0.5 μg/ml tetracycline. On the day of the assay, culture media was removed and cells were incubated with assay buffer
Potential antagonists were added 2.5 min prior to the addition of agonist, 1 μM icilin, 100 μM L-menthol, or 1 min prior to the addition of cold buffer (<10° C.). The luminescence was measured by a CCD camera based FLASH-luminometer built by Amgen, Inc. A cooling device attached to FLASH luminometer was used for cold activation.
On the technique in general: A change in cytosolic calcium serves as a functional read-out for many receptors and channels.

T1 sequence (Q7Z2W7 whole entry): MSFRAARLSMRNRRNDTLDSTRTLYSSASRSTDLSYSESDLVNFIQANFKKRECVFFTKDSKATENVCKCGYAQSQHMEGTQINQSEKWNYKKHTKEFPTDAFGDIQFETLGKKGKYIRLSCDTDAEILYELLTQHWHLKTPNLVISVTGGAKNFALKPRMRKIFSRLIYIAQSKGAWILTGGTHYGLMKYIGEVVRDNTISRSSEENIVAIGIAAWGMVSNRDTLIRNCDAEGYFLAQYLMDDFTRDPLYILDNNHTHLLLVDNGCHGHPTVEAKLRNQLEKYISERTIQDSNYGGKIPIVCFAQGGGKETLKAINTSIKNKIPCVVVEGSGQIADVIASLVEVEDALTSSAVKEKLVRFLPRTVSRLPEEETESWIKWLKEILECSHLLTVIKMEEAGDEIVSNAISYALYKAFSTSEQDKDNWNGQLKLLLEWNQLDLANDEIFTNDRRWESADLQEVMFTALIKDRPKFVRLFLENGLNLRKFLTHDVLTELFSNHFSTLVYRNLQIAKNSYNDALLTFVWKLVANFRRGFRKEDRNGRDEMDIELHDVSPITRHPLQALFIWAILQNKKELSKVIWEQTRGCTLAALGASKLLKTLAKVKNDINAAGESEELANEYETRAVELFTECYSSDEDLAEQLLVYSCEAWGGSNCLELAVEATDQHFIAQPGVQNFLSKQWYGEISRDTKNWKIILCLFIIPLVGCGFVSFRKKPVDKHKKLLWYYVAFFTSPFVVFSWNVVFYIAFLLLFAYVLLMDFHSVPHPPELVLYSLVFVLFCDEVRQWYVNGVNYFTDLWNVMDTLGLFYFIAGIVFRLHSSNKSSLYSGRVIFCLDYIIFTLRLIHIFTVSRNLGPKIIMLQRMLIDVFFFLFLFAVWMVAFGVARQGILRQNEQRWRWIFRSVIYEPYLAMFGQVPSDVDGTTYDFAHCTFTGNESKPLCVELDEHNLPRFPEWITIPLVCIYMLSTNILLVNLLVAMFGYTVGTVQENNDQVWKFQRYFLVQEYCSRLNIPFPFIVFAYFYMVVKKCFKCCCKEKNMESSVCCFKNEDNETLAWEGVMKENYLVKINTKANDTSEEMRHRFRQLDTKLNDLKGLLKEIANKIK

As to `O=C(N[C@]1(c2ccc(C(F)(F)F)cc2)CCOc2cccnc21)c1ccc2cc[nH]c2c1` [Example 36, (S)-N-(4-(4-(trifluoromethyl)phenyl)-3,4-dihydro-2H-pyrano[3,2-b]pyridin-4-yl)-1H-indole-6-carboxamide], the IC50 amounted to 36 nM.
In the case of `O=C(N[C@]1(c2ccc(C(F)(F)F)cc2)CCOc2cccnc21)c1ccnnc1` [Example 37, (S)-N-(4-(4-(trifluoromethyl)phenyl)-3,4-dihydro-2H-pyrano[3,2-b]pyridin-4-yl)pyridazine-4-carboxamide] it was 2620 nM; in that of `Cn1ncc2ccc(C(=O)N[C@]3(c4ccc(C(F)(F)F)cc4)CCOc4cccnc43)cc21` [Example 38, (S)-1-methyl-N-(4-(4-(trifluoromethyl)phenyl)-3,4-dihydro-2H-pyrano[3,2-b]pyridin-4-yl)-1H-indazole-6-carboxamide], 20 nM.
In the case of `O=C(N[C@]1(c2ccc(C(F)(F)F)cc2)CCOc2cccnc21)c1cncs1` [Example 39, (S)-N-(4-(4-(trifluoromethyl)phenyl)-3,4-dihydro-2H-pyrano[3,2-b]pyridin-4-yl)thiazole-5-carboxamide] it was 269 nM; in that of `O=C(N[C@]1(c2ccc(C(F)(F)F)cc2)CCOc2cccnc21)c1ccc(O)cn1` [Example 40, (S)-5-hydroxy-N-(4-(4-(trifluoromethyl)phenyl)-3,4-dihydro-2H-pyrano[3,2-b]pyridin-4-yl)picolinamide], 7 nM.
To `O=C(N[C@]1(c2ccc(C(F)(F)F)cc2)CCOc2cccnc21)c1ccns1` [Example 41, (S)-N-(4-(4-(trifluoromethyl)phenyl)-3,4-dihydro-2H-pyrano[3,2-b]pyridin-4-yl)isothiazole-5-carboxamide] belongs 87 nM; to `Cn1ccc2cc(C(=O)N[C@]3(c4ccc(C(F)(F)F)cc4)CCOc4cccnc43)ccc21` [Example 42, (S)-1-methyl-N-(4-(4-(trifluoromethyl)phenyl)-3,4-dihydro-2H-pyrano[3,2-b]pyridin-4-yl)-1H-indole-5-carboxamide], 24 nM; to `CC(=O)Nc1ccc(C(=O)N[C@]2(c3ccc(C(F)(F)F)cc3)CCOc3cccnc32)nc1` [Example 43, (S)-5-acetamido-N-(4-(4-(trifluoromethyl)phenyl)-3,4-dihydro-2H-pyrano[3,2-b]pyridin-4-yl)picolinamide], 111 nM.
Consider `Cn1ncc2cc(C(=O)N[C@]3(c4ccc(C(F)(F)F)cc4)CCOc4cccnc43)ccc21` [Example 44, (S)-1-methyl-N-(4-(4-(trifluoromethyl)phenyl)-3,4-dihydro-2H-pyrano[3,2-b]pyridin-4-yl)-1H-indazole-5-carboxamide], for which the IC50 stood at 8 nM.
To `O=C(N[C@]1(c2ccc(C(F)(F)F)cc2)CCOc2cccnc21)c1c[nH]c(=O)cn1` [Example 45, (S)-5-oxo-N-(4-(4-(trifluoromethyl)phenyl)-3,4-dihydro-2H-pyrano[3,2-b]pyridin-4-yl)-4,5-dihydropyrazine-2-carboxamide] belongs 38 nM; to `O=C(N[C@]1(c2ccc(C(F)(F)F)cc2)CCOc2cccnc21)c1ccncc1` [Example 46, (S)-N-(4-(4-(trifluoromethyl)phenyl)-3,4-dihydro-2H-pyrano[3,2-b]pyridin-4-yl)isonicotinamide], 358 nM.
To `COc1ccc(C(=O)N[C@]2(c3ccc(C(F)(F)F)cc3)CCOc3cccnc32)nn1` [Example 47, (S)-6-methoxy-N-(4-(4-(trifluoromethyl)phenyl)-3,4-dihydro-2H-pyrano[3,2-b]pyridin-4-yl)pyridazine-3-carboxamide] belongs 82 nM; to `O=C(N[C@]1(c2ccc(C(F)(F)F)cc2)CCOc2cccnc21)c1cccnc1` [Example 48, (S)-N-(4-(4-(trifluoromethyl)phenyl)-3,4-dihydro-2H-pyrano[3,2-b]pyridin-4-yl)nicotinamide], 481 nM.
